According to patent US9434711B2 (Janssen Pharmaceutica, NV, priority 2007, dated 2016):
pIC50: −log10 of the molar value.

Molecular target: canine TRPM8 (Canis lupus familiaris, UniProt Q1A7N1)
Test: In Vitro Canine TRPM8 Functional Assay (Ca2+ fluorescence, icilin activation)
Type: cell-based
Details: for pIC50: HEK293 cells stably expressing canine TRPM8, icilin activation, eight-point dose-response, read-out: IC50; for inhibition at 0.2 µM / % Inh @ 0.2 (μM): compound at 0.2 μM, canine TRPM8, icilin activation; for inhibition at 0.2 µM: read-out: % Inh @ 0.2
How it was run: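 Cells (HEK293, stable canine TRPM8) are seeded 24 h before assay. They are then dye-loaded with Calcium 3 at 37 °C followed by room temperature. Compound is added and monitored for 5 min, after which icilin (~80% maximal response) is added.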

Sequence of canine TRPM8 (Q1A7N1 1-1104): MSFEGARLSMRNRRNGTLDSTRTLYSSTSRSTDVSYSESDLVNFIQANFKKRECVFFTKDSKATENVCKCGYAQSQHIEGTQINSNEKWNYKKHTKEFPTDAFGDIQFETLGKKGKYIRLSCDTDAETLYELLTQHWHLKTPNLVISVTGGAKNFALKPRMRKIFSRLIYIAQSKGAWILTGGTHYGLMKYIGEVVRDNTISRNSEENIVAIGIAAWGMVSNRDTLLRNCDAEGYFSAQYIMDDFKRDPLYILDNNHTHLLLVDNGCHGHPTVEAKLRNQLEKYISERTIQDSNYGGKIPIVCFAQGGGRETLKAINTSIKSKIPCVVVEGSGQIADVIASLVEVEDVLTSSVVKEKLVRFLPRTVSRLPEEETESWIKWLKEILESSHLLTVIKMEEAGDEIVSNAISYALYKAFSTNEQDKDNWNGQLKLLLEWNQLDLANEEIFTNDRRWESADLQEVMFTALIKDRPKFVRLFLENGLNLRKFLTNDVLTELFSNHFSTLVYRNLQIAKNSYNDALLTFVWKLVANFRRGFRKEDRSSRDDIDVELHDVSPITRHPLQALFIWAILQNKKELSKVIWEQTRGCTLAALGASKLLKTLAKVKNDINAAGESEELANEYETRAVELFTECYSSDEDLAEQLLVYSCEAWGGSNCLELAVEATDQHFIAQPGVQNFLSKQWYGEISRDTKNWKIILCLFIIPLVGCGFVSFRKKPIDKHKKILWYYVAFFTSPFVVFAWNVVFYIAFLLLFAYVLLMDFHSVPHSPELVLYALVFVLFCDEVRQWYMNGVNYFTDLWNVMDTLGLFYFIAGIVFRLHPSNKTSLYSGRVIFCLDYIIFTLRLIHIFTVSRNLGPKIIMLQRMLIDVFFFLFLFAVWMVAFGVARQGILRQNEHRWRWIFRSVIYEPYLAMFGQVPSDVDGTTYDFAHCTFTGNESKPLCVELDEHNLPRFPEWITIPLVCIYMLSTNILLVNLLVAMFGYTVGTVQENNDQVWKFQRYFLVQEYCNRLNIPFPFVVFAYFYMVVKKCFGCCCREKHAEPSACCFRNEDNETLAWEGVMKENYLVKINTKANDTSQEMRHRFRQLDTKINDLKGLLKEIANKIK

| SMILES | pIC50 | inhibition at 0.2 µM [%] | % Inh @ 0.2 (μM) [%] |
| --- | --- | --- | --- |
| CC(=O)c1ccc(S(=O)(=O)N(Cc2ccc(F)c(C(F)(F)F)c2)c2sc3ccccc3c2C(C)(C)O)cc1 [Compound 389, 4-Acetyl-N-(4-fluoro-3-trifluoromethylbenzyl)-N-(3-(1-hydroxy-1-methyl-ethyl)-benzo[b]thiophen-2-yl)-benzenesulfonamide] | 8.00 | 97 | – |
| CCN(c1sc2ccccc2c1Br)S(=O)(=O)c1ccc(C(=O)O)cc1 [Compound 390, N-(3-Bromo-benzo[b]thiophen-2-yl)-N-(ethyl)-4-carboxy-benzenesulfonamide] | – | 69 | – |
| CCCN(c1sc2ccccc2c1Br)S(=O)(=O)c1ccc(C(=O)O)cc1 [Compound 391, N-(3-Bromo-benzo[b]thiophen-2-yl)-N-(propyl)-4-carboxy-benzenesulfonamide] | 7.33 | 93 | – |
| CCCCCN(c1sc2ccccc2c1Br)S(=O)(=O)c1ccc(C(=O)O)cc1 [Compound 392, N-(3-Bromo-benzo[b]thiophen-2-yl)-N-(pentyl)-4-carboxy-benzenesulfonamide] | 8.15 | 93 | – |
| CCCCCCN(c1sc2ccccc2c1Br)S(=O)(=O)c1ccc(C(=O)O)cc1 [Compound 393, N-(3-Bromo-benzo[b]thiophen-2-yl)-N-(hexyl)-4-carboxy-benzenesulfonamide] | 8.30 | 95 | – |
| O=C(O)c1ccc(S(=O)(=O)N(CCCC(F)(F)F)c2sc3ccccc3c2Br)cc1 [Compound 394, N-(3-Bromo-benzo[b]thiophen-2-yl)-N-(4,4,4-trifluoro-butyl)-4-carboxy-benzenesulfonamide] | 8.05 | 101 | – |
| CC(C)(C)OCCCN(c1sc2ccccc2c1Br)S(=O)(=O)c1ccc(C(=O)O)cc1 [Compound 397, N-(3-Bromo-benzo[b]thiophen-2-yl)-N-(3-tert-butoxypropyl)-4-carboxy-benzenesulfonamide] | 8.10 | 95 | – |
| Cc1c(N(CC2CC2)S(=O)(=O)c2ccc(C(=O)O)cc2)sc2ccccc12 [Compound 399, N-(3-Methyl-benzo[b]thiophen-2-yl)-N-(cyclopropylmethyl)-4-carboxy-benzenesulfonamide] | 7.44 | 93 | – |
| Cc1c(N(CCOC(C)(C)C)S(=O)(=O)c2ccc(C(=O)O)cc2)sc2ccccc12 [Compound 401, N-(3-Methyl-benzo[b]thiophen-2-yl)-N-(2-tert-butoxy-ethyl)-4-carboxy-benzenesulfonamide] | 8.30 | 91 | – |
| CCN(c1sc2ccccc2c1C)S(=O)(=O)c1ccc(C(=O)OC)cc1 [Compound 402, N-(3-Methyl-benzo[b]thiophen-2-yl)-N-(ethyl)-4-carbomethoxy-benzenesulfonamide] | – | 38 | – |
| CCN(c1sc2ccccc2c1C)S(=O)(=O)c1ccc(C(=O)O)cc1 [Compound 403, N-(3-Methyl-benzo[b]thiophen-2-yl)-N-(ethyl)-4-carboxy-benzenesulfonamide] | – | 52 | – |
| CCCN(c1sc2ccccc2c1C)S(=O)(=O)c1ccc(C(=O)O)cc1 [Compound 404, N-(3-Methyl-benzo[b]thiophen-2-yl)-N-(propyl)-4-carboxy-benzenesulfonamide] | – | 96 | – |
| COC(=O)c1cccc(CN(c2sc3ccccc3c2Br)S(=O)(=O)c2cccnc2)c1 [Compound 405, N-(3-Bromo-benzo[b]thiophen-2-yl)-N-(3-carbomethoxy-benzyl)-pyridin-3-ylsulfonamide] | 7.44 | 95 | – |
| COC(=O)c1ccc(CN(c2sc3ccccc3c2Br)S(=O)(=O)c2cccnc2)cc1 [Compound 406, N-(3-Bromo-benzo[b]thiophen-2-yl)-N-(4-carbomethoxy-benzyl)-pyridin-3-ylsulfonamide] | – | 66 | – |
| O=S(=O)(c1cccnc1)N(CCCC(F)(F)F)c1sc2ccccc2c1Br [Compound 407, N-(3-Bromo-benzo[b]thiophen-2-yl)-N-(4,4,4-trifluoro-butyl)-pyridin-3-yl-sulfonamide] | 7.37 | 96 | – |
| O=S(=O)(c1cccnc1)N(CCCC(F)(F)F)c1sc2ccccc2c1Cl [Compound 408, N-(3-Chloro-benzo[b]thiophen-2-yl)-N-(4,4,4-trifluoro-butyl)-3-pyridin-3-yl-sulfonamide] | 6.91 | – | 78 |
| Cc1c(N(CCCC(F)(F)F)S(=O)(=O)c2ccc(C(=O)O)cc2)sc2ccccc12 [Compound 410, N-(3-Methyl-benzo[b]thiophen-2-yl)-N-(4,4,4-trifluoro-butyl)-4-carboxy-benzenesulfonamide] | 7.77 | 96 | – |
| N#Cc1ccc(S(=O)(=O)N(Cc2ccc(F)c(C(F)(F)F)c2)c2cc3ccccc3s2)cc1 [Compound 411, N-(Benzo[b]thiophen-2-yl)-N-(4-fluoro-3-trifluoromethyl-benzyl)-4-cyano-benzenesulfonamide] | – | 43 | – |
| NC(=O)c1ccc(S(=O)(=O)N(Cc2ccc(F)c(C(F)(F)F)c2)c2cc3ccccc3s2)cc1 [Compound 413, N-(Benzo[b]thiophen-2-yl)-N-(4-fluoro-3-trifluoromethyl-benzyl)-4-carboxamide-benzenesulfonamide] | 7.34 | – | 93 |
| NC(=O)c1ccc(S(=O)(=O)N(CCCC(F)(F)F)c2cc3ccccc3s2)cc1 [Compound 414, N-(Benzo[b]thiophen-2-yl)-N-(4,4,4-trifluoro-butyl)-4-carboxamide-benzene-sulfonamide] | – | – | 33 |
| COC(=O)c1ccc(S(=O)(=O)N(CCCOC(C)(C)C)c2sc3ccccc3c2C)cc1 [Compound 416, N-(3-Methyl-benzo[b]thiophen-2-yl)-N-(3-tert-butoxy-propyl)-4-carbomethoxy-benzenesulfonamide] | 7.92 | 95 | – |

More lines, main results first:

| pIC50 | inhibition at 0.2 µM [%] | SMILES | % Inh @ 0.2 (μM) [%] |
| --- | --- | --- | --- |
| – | 13 | COC(=O)c1ccc(S(=O)(=O)N(CCCC(F)(F)F)c2sc3cc(F)ccc3c2C)cc1 [Compound 412, N-(6-Fluoro-3-methyl-benzo[b]thiophen-2-yl)-N-(4,4,4-trifluoro-butyl)-4-carbomethoxybenzenesulfonamide] | – |
| 8.30 | 92 | COC(=O)c1ccc(S(=O)(=O)N(Cc2ccc(F)c(C(F)(F)F)c2)c2sc3ccccc3c2C(C)(C)O)cc1 [Compound 415, N-(4-Fluoro-3-trifluoromethylbenzyl)-N-(3-(1-hydroxy-1-methyl-ethyl)-benzo[b]thiophen-2-yl)-4-carbomethoxy-benzenesulfonamide] | – |
| 7.21 | 93 | CNCc1c(N(Cc2ccc(F)c(C(F)(F)F)c2)S(=O)(=O)c2ccccc2)sc2ccccc12 [Compound 417, N-(4-Fluoro-3-trifluoromethyl-benzyl)-N-(3-methylaminomethyl-benzo[b]thiophen-2-yl)-benzenesulfonamide] | – |
| 7.16 | 90 | CN(C)Cc1c(N(Cc2ccc(F)c(C(F)(F)F)c2)S(=O)(=O)c2ccccc2)sc2ccccc12 [Compound 418, N-(3-Dimethylaminomethyl-benzo[b]thiophen-2-yl)-N-(4-fluoro-3-trifluoromethyl-benzyl)-benzenesulfonamide] | – |
| 6.46 | 74 | CCCCN(c1sc2ccccc2c1C=O)S(=O)(=O)c1ccc(C(=O)OC)cc1 [Compound 419, N-(Butyl)-N-(3-formyl-benzo[b]thiophene-2-yl)-4-carbomethoxy-benzenesulfonamide] | – |
| – | 48 | CCCCN(c1sc2ccccc2c1CN(C)C)S(=O)(=O)c1ccc(C(=O)OC)cc1 [Compound 420, N-(3-Dimethylaminomethyl-benzo[b]thiophen-2-yl)-N-(butyl)-4-carbomethoxy-benzenesulfonamide] | – |
| 7.19 | 90 | O=S1(=O)C(N(Cc2ccc(F)c(C(F)(F)F)c2)S(=O)(=O)c2ccccc2)=Cc2ccccc21 [Compound 421, N-(4-Fluoro-3-trifluoromethyl-benzyl)-N-(1,1-dioxo-benzo[b]thiophen-2-yl)-benzenesulfonamide] | – |
| 7.74 | 97 | CCCCN(c1sc2ccccc2c1OC)S(=O)(=O)c1ccc(C(=O)OC)cc1 [Compound 422, N-(Butyl)-N-(3-methoxy-benzo[b]thiophen-2-yl)-4-carbomethoxybenzenesulfonamide] | – |
| 8.15 | 93 | CCCCN(c1sc2ccccc2c1OC)S(=O)(=O)c1ccc(C(=O)O)cc1 [Compound 423, N-(Butyl)-N-(3-methoxy-benzo[b]thiophen-2-yl)-4-carboxy-benzenesulfonamide] | – |
| 8.15 | 95 | O=S(=O)(c1ccc(-c2nnn[nH]2)cc1)N(Cc1ccc(F)c(C(F)(F)F)c1)c1cc2ccccc2s1 [Compound 424, N-(Benzo[b]thiophen-2-yl)-N-(4-fluoro-3-trifluoromethyl-benzyl)-4-(1H-tetrazol-5-yl)-benzenesulfonamide] | – |
| 7.10 | 86 | O=S(=O)(c1ccc(-c2nnn[nH]2)cc1)N(CCCC(F)(F)F)c1cc2ccccc2s1 [Compound 425, N-(Benzo[b]thiophen-2-yl)-N-(4,4,4-trifluoro-butyl)-4-(1H-tetrazol-5-yl)-benzenesulfonamide] | – |
| 7.52 | 95 | Cc1c(N(CCCC(F)(F)F)S(=O)(=O)c2ccc(C(=O)O)cc2)sc2cc(F)ccc12 [Compound 426, N-(6-Fluoro-3-methyl-benzo[b]thiophen-2-yl)-N-(4,4,4-trifluoro-butyl)-4-carboxy-benzenesulfonamide] | – |
| 8.30 | 95 | Cc1c(N(Cc2ccc(F)c(C(F)(F)F)c2)S(=O)(=O)c2ccc(C(=O)O)cc2)sc2cc(F)ccc12 [Compound 427, N-(6-Fluoro-3-methyl-benzo[b]thiophen-2-yl)-N-(4-fluoro-3-trifluoromethyl-benzyl)-4-carboxy-benzenesulfonamide] | – |
